Assay results as given in PMC10114720.

Key:
[1] = PDMS sheets cleaned by Soxhlet with ethyl acetate; batch shaking method with a mixture of all chemicals at several PDMS-mass to water-volume ratios and spiked levels; vials shaken on an orbital shaker at room temperature in the dark, sampled at two equilibration times; PDMS extracts and water quantified by LC-HRMS (Orbitrap); D from the slope of C_PDMS on C_w or their ratio; value is the mean over that pH's experiments (individual experiments in the SI's concentrations table), sd is the table's stdev; details: PDMS (polydimethylsiloxane silicone sheet), phosphate buffer at three target pH values (the paper's methods)
[2] = neutral chemical: log K is the mean of log D over all measurements at the three pH values (D shown independent of pH, paired t-test); sd is the table's stddev. PDMS sheets cleaned by Soxhlet with ethyl acetate; batch shaking method with a mixture of all chemicals at several PDMS-mass to water-volume ratios and spiked levels; vials shaken on an orbital shaker at room temperature in the dark, sampled at two equilibration times; PDMS extracts and water quantified by LC-HRMS (Orbitrap); D from the slope of C_PDMS on C_w or their ratio; details: PDMS (polydimethylsiloxane silicone sheet); phosphate buffer at three target pH values (the paper's methods)
[3] = monoprotic acid or base: log K of the neutral species extrapolated from the linear regression of D on the neutral fraction (from pKa and pH; the paper's eq. for monoprotic IOCs), the slope giving K of the neutral species; replicates column holds the table's 95% confidence limits. PDMS sheets cleaned by Soxhlet with ethyl acetate; batch shaking method with a mixture of all chemicals at several PDMS-mass to water-volume ratios and spiked levels; vials shaken on an orbital shaker at room temperature in the dark, sampled at two equilibration times; PDMS extracts and water quantified by LC-HRMS (Orbitrap); D from the slope of C_PDMS on C_w or their ratio; details: PDMS (polydimethylsiloxane silicone sheet); phosphate buffer at three target pH values (the paper's methods)

Row | log D PDMS/w (apparent distribution ratio at the stated pH) ([1]; pH 3) | log D PDMS/w (apparent distribution ratio at the stated pH) ([1]; pH 7.4) | log D PDMS/w (apparent distribution ratio at the stated pH) ([1]; pH 11.5) | log K PDMS/w (neutral species) [2] | Compound | log K PDMS/w (neutral species) [3]
1 | 1.579 log units; D and K as the pape | 1.554 log units; D and K as the pape | 1.65 log units; D and K as the pape | 1.593 log units; D and K as the pape | Cc1c(C(C)C)c(=O)n(-c2ccccc2)n1C | 
2 | -0.06167 log units; D and K as the pape | -0.02167 log units; D and K as the pape | 0.01333 log units; D and K as the pape | -0.02333 log units; D and K as the pape | CN(C)S(=O)(=O)c1ccc(N)cc1 | 
3 | 3.728 log units; D and K as the pape | 3.685 log units; D and K as the pape | 3.574 log units; D and K as the pape | 3.661 log units; D and K as the pape | CCCCOCCOCCOCc1cc2c(cc1CCC)OCO2 | 
4 | 1.611 log units; D and K as the pape | 1.592 log units; D and K as the pape | 1.633 log units; D and K as the pape | 1.611 log units; D and K as the pape | CCN(CC)C(=O)c1cccc(C)c1 | 
5 | 1.406 log units; D and K as the pape | 1.371 log units; D and K as the pape | 1.462 log units; D and K as the pape | 1.409 log units; D and K as the pape | CN(C)C(=O)Nc1ccc(Cl)c(Cl)c1 | 
6 | 4.526 log units; D and K as the pape | 4.273 log units; D and K as the pape | 4.425 log units; D and K as the pape | 4.415 log units; D and K as the pape | CC(C)OC(=O)C(C)(C)Oc1ccc(C(=O)c2ccc(Cl)cc2)cc1 | 
7 | 3.188 log units; D and K as the pape | 3.329 log units; D and K as the pape | 3.181 log units; D and K as the pape | 3.231 log units; D and K as the pape | CCCCCCCCCCCC(=O)NCC(C)O (stereo not drawn) | 
8 | 3.9 log units; D and K as the pape | 3.912 log units; D and K as the pape | 3.742 log units; D and K as the pape | 3.848 log units; D and K as the pape | Cc1ccc(C=C2C(=O)C3(C)CCC2C3(C)C)cc1 (stereo not drawn) | 
9 | -0.2614 log units; D and K as the pape | -0.1813 log units; D and K as the pape | -0.1629 log units; D and K as the pape | -0.2009 log units; D and K as the pape | Cc1c(C=O)c(=O)n(-c2ccccc2)n1C | 
10 | 1.25 log units; D and K as the pape | -0.5267 log units; D and K as the pape |  | 0.9169 log units; D and K as the pape | COC(=O)C(c1ccccc1Cl)N1CCc2sccc2C1 (stereo not drawn) | 

Continued, compound first:

Row | Compound | log D PDMS/w (apparent distribution ratio at the stated pH) ([1]; pH 3) | log D PDMS/w (apparent distribution ratio at the stated pH) ([1]; pH 7.4) | log D PDMS/w (apparent distribution ratio at the stated pH) ([1]; pH 11.5) | log K PDMS/w (neutral species) [2] | log K PDMS/w (neutral species) [3]
11 | N#CSCSc1nc2ccccc2s1 | 1.914 log units; D and K as the pape | 1.821 log units; D and K as the pape |  | 1.857 log units; D and K as the pape | 1.892 log units; D and K as the pape
12 | NC(=O)Nc1ccc(Cl)c(Cl)c1 | 0.5975 log units; D and K as the pape | 0.6543 log units; D and K as the pape | 0.6515 log units; D and K as the pape | 0.6359 log units; D and K as the pape | 
13 | CC=CC(=O)N(CC)c1ccccc1C (mixture of isomers) | 2.104 log units; D and K as the pape | 2.038 log units; D and K as the pape | 2.025 log units; D and K as the pape | 2.056 log units; D and K as the pape | 
14 | O=P(c1ccccc1)(c1ccccc1)c1ccccc1 | 2.588 log units; D and K as the pape | 2.511 log units; D and K as the pape | 2.589 log units; D and K as the pape | 2.562 log units; D and K as the pape | 
15 | [O-][n+]1cccc2ccccc21 | 1.066 log units; D and K as the pape | 1.11 log units; D and K as the pape | 1.203 log units; D and K as the pape | 1.126 log units; D and K as the pape | 
16 | CN(C)C(=O)Nc1ccccc1 | 0.45 log units; D and K as the pape | 0.473 log units; D and K as the pape | 0.443 log units; D and K as the pape | 0.4555 log units; D and K as the pape | 
17 | CC(C)(C)Nc1nc(N)nc(Cl)n1 | 1.314 log units; D and K as the pape | 1.264 log units; D and K as the pape | 1.309 log units; D and K as the pape | 1.296 log units; D and K as the pape | 
18 | CC(C)Nc1nc(N)nc(Cl)n1 | 0.418 log units; D and K as the pape | 0.4125 log units; D and K as the pape | 0.411 log units; D and K as the pape | 0.4139 log units; D and K as the pape | 
19 | N#Cc1nn(-c2c(Cl)cc(C(F)(F)F)cc2Cl)c(N)c1S(=O)(=O)C(F)(F)F | 2.417 log units; D and K as the pape | 2.376 log units; D and K as the pape | 2.192 log units; D and K as the pape | 2.329 log units; D and K as the pape | 
